Measured values reported in patent publication US20050080076A1 (Xanodyne Pharmacal, Inc., priority 2003, published 2005).

Key:
P-glycoprotein (p-gp) = molecular target: T1, P-glycoprotein (p-gp) (Homo sapiens, UniProt P08183); assay: P-glycoprotein efflux in CACO-2 Model; type: in vitro ADME
T1 construct: using a human colon carcinoma cell line (CACO-2 Model); endogenous in cells; host or cells: CACO-2 (human colon carcinoma cell line)

[1] = system: human colon carcinoma cell line (CACO-2 Model); assay: Intestinal absorption assay (CACO-2 Model); type: in vitro ADME
[2] = system: Primary human hepatocytes; assay: In vitro metabolism in primary human hepatocytes; type: in vitro ADME
Adrenergic α1A = Adrenergic α1A (Homo sapiens, UniProt P25100); assay: Receptor binding, Adrenergic α1A
Experimental: Receptor-ligand binding studies were performed as known to one skilled in the art. Compounds evaluated were LMP, the parent compound, the NDM LMP metabolite of LMP, and the sulfoxide metabolite of LMP. These studies verified receptor binding and affinity by the parent compound, as well as identified other potential receptors for the parent compound and its metabolites, and identified and verified receptors and receptor affinity for the metabolites. […] Binding to the histamine H1 receptor, the calcium ion channel receptor, and the sodium ion channel receptor were also evaluated. In each of the tables, the following abbreviations are used: LMP indicates the parent compound levomepromazine. NDM LMP indicates the N-desmethyl (N-desmethyl) metabolite. Sulfoxide indicates the sulfoxide metabolite. […] Ki (the inhibition constants of binding) indicate binding affinity.

Adrenergic α1C = Adrenergic α1C (Homo sapiens, UniProt P35348); assay: Receptor binding, Adrenergic α1C
Experimental: Receptor-ligand binding studies were performed as known to one skilled in the art. […] Binding to the histamine H1 receptor, the calcium ion channel receptor, and the sodium ion channel receptor were also evaluated. […] Sulfoxide indicates the sulfoxide metabolite. […] Ki (the inhibition constants of binding) indicate binding affinity.

T1 sequence (P08183 whole entry): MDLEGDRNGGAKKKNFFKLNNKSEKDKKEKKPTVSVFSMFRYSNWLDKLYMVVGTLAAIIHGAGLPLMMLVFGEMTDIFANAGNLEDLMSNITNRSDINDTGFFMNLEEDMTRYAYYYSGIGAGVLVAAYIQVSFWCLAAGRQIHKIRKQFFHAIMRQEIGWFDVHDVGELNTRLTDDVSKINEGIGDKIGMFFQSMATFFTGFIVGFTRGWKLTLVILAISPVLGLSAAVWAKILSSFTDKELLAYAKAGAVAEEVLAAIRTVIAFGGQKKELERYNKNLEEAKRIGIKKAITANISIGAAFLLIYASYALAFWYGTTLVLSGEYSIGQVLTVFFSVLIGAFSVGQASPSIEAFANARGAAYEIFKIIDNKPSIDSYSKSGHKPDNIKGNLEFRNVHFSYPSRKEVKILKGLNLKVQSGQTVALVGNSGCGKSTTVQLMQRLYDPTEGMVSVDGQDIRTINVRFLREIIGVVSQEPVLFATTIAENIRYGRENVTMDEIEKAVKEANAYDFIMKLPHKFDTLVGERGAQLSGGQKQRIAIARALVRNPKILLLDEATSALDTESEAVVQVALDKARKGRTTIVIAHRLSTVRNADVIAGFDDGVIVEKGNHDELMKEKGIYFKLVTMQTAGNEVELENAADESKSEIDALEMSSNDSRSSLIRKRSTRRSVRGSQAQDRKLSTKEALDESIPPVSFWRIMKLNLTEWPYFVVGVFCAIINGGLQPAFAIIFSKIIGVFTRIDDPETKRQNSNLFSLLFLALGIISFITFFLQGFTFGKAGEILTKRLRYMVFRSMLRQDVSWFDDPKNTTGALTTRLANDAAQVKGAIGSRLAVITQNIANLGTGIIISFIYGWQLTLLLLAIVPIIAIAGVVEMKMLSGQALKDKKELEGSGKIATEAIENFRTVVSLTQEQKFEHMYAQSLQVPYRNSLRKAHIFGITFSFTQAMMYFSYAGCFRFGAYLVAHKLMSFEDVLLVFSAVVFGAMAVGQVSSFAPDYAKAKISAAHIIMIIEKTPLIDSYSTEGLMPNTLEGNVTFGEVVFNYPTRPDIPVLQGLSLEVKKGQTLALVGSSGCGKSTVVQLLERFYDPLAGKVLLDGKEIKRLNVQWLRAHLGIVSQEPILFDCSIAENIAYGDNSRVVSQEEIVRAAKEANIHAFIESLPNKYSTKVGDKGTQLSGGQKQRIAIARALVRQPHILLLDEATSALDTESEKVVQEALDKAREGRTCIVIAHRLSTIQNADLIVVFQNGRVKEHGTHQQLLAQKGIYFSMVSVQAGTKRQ
Chain of Adrenergic α1C (P35348 whole entry): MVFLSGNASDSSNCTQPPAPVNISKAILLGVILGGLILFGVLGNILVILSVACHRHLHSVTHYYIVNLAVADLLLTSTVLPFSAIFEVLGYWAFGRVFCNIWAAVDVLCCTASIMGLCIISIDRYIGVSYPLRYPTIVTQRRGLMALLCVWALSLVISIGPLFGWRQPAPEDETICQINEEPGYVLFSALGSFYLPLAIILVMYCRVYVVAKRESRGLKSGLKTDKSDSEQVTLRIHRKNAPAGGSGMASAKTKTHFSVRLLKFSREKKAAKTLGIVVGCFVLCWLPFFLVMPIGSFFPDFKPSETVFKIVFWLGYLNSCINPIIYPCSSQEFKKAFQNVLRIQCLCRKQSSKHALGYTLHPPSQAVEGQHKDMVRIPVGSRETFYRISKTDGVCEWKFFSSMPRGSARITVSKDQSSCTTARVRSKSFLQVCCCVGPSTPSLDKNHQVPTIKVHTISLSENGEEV
Chain of Adrenergic α1A (P25100 whole entry): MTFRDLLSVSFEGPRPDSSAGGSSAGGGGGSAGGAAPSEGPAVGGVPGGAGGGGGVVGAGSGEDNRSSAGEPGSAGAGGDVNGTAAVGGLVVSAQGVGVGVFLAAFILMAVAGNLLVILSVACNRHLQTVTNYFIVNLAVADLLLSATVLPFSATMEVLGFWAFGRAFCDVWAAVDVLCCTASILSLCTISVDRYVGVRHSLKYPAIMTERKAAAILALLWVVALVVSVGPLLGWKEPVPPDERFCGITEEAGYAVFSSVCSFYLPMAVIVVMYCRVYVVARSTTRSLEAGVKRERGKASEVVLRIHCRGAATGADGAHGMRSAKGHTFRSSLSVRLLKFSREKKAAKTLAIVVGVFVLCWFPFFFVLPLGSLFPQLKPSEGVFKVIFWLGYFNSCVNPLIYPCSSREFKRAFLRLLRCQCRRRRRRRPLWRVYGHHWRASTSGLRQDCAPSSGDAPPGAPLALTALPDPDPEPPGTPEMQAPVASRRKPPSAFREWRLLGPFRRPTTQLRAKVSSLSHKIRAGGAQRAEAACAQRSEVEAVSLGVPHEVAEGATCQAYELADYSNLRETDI

SMILES	transport by P-glycoprotein relative to parent LMP (P-glycoprotein (p-gp))	inhibition of efflux relative to parent LMP (P-glycoprotein (p-gp); in the presence of p-gp inhibitor verapamil)	relative efflux to influx ratio, reduction versus parent LMP (P-glycoprotein (p-gp); through the enterocyte, less than parent LMP)	apical to basolateral permeability coefficient relative to parent LMP [1]	gut wall (enterocyte) metabolism relative to parent LMP [1]	percent recovered through the system relative to parent LMP [1]	Phase I biotransformation [2]	Phase II biotransformation (conjugation) [2]	metabolic stability relative to LMP [2]	sulfoxide metabolite formation [2]	Ki (Adrenergic α1A)	Ki (Adrenergic α1C)
CNCC(C)CN1c2ccccc2Sc2ccc(OC)cc21 (stereo not drawn) [NDM LMP, R(+) 2-methoxy-10-2-methyl-3-monomethylaminopropyl phenothiazine]	to a lesser degree than the parent LMP	at least one-half lower	at least 50%	1.5 fold	occurs to a lower extent	1.5-2.0 fold	metabolized to only one putative primary amine metabolite	did not appear to undergo any Phase II biotransformation	much more metabolically stable than its LMP parent compound	no detectable sulfoxide metabolites were formed		
COc1ccc2c(c1)N(C[C@H](C)CN(C)C)c1ccccc1[S+]2[O-] (stereo partly drawn) [Sulfoxide, levomepromazine sulfoxide]											141 nM	193 nM
